From patent publication US20060014722A1, “Per (3,6-anhydro) cyclodextrin derivatives, their preparation and use thereof for separating ions, in particular chromium and manganese anions” (priority 2002, published 2006)

Experiments:
[1] = Ion-exchange plate chromatography (retardation factor Rf), complexing of chromium anions; type: binding; conditions: Polygram Ionex 25-SA-Na plates charged with the ion, developed four times in water
Description: (§1) The use of thin layer chromatography plates charged with ions allows rapid evaluation of the complexing of these ions by the species to be evaluated; in the present case, plates of the Polygram Ionex 25-SA-Na type (Macherey-Nagel, ref.: 80613) charged with various counterions to be evaluated.
(§2) Thus, chromatography plates are used onto which are respectively bound the ions acetyl COO^− (designated Ac in FIG. 1), PO4^3−, NO3^−, Cr2O7^2−, Cl^−, SO4^2^−, HCO3^−, BO3^−, WO4^2−, MnO4^−, CrO4^2−, AsO4^2−, AlO2^−.
(§3) In each test, there is introduced onto the plate the compound of Example 1 which will be retained on the plate if it complexes the ions. […] The lower the Rf, for a given ion, the more the ion in question will form a complex with the cyclodextrin compound.

[2] = Ion-exchange plate chromatography (retardation factor Rf), complexing of manganese anions; type: binding; conditions: Polygram Ionex 25-SA-Na plates charged with the ion, developed four times in water
Description: as §1, §2, §3

[3] = Ion-exchange plate chromatography, complexing of cations; type: binding; conditions: 18 cations tested on ion-exchange plates
Description: as §1, §3
Likewise, tests were carried out to see whether the derivatives according to the invention were capable of complexing cations. Tests were carried out with the following ions:
Na^+, K^+, Cs^+,NH4^+,Ca^2+,Ba^2+, Al^3+, Fe^3+, Co^2+, Ni^2+, Cu^2+, Ag^2+, Zn^2+, Hg^2+, Pb^2+, La^3+, Gd^3+, UO2^2+.

Solubility in water = type: physicochemical

Substance: per(3,6-anhydro)cyclomaltohexaose per-2-O-ethylcarbamate [Example 1]
- complexing rate for chromium ions (Rf, FIG. 1) [1]: high complexing rate
- complexing rate for manganese ions (Rf, FIG. 1) [2]: high complexing rate
- complexing of cations (Rf, FIG. 2) [3]: none of these cations efficiently forms a complex
- solubility in water (Solubility in water): low solubility in water
